Legend:
Adenosine A2 receptor = Adenosine A2 receptor (Rattus norvegicus, UniProt P29276+P30543); assay: Binding affinity towards adenosine A2 receptor was determined using radioligand [3H]NECA in rat brain striatum at 25 degree C; assay type: tissue-based
[1] = target: Adenosine receptors; A1 & A2 (Rattus norvegicus) (UniProt P29276+P25099+P30543); assay: Selectivity as ratio of Ki against A2 and A1 receptors; assay type: protein assay
Adenosine receptor A1 = target: T1, Adenosine receptor A1 (Rattus norvegicus, UniProt P25099); assay: Binding affinity towards adenosine A1 receptor was determined using radioligand [3H]CHA in whole rat brain membranes at 25 degree C; assay type: cell membranes
T1 sequence (P25099 whole entry): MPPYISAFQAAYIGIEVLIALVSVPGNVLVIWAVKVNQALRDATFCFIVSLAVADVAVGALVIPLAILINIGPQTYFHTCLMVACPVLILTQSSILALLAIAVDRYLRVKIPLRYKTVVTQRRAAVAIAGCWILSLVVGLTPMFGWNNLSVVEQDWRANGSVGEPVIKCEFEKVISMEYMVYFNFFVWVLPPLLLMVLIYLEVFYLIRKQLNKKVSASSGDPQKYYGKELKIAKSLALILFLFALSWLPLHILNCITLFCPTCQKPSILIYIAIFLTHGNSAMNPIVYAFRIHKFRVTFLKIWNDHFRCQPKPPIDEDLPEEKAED

CCCn1c(=O)c2nc(CC(C)c3ccccc3)[nH]c2n(CCC)c1=O (centres undefined)
Ki (Adenosine A2 receptor): 1.74 µM
Ratio [1]: 18

CCCn1c(=O)c2nc(C3CCc4ccccc4C3)[nH]c2n(CCC)c1=O (centres undefined)
Ki (Adenosine A2 receptor): 10.3 µM

CCCn1c(=O)c2nc([C@H](CC)c3ccccc3)[nH]c2n(CCC)c1=O
Ki (Adenosine A2 receptor): 3.51 µM
Ratio [1]: 153

CCCn1c(=O)c2nc(C(C)c3ccccc3)[nH]c2n(CCC)c1=O (centres undefined)
Ki (Adenosine A2 receptor): 4.9 µM

CCCn1c(=O)c2nc(C3Cc4ccccc4C3)[nH]c2n(CCC)c1=O
Ki (Adenosine A2 receptor): 8.35 µM

CCCn1c(=O)c2nc([C@H]3CCC[C@@H]3c3ccccc3)[nH]c2n(CCC)c1=O
Ki (Adenosine A2 receptor): 2.72 µM

CCCn1c(=O)c2nc(C(CC)c3ccccc3)[nH]c2n(CCC)c1=O (centres undefined)
Ki (Adenosine receptor A1): 33.5 nM
Ki (Adenosine A2 receptor): 3.21 µM
Ratio [1]: 95

CCCn1c(=O)c2nc([C@@H](CC)c3ccccc3)[nH]c2n(CCC)c1=O
Ki (Adenosine receptor A1): 136 nM
Ki (Adenosine A2 receptor): 7.5 µM
Ratio [1]: 55

CCCn1c(=O)c2nc([C@H](C)c3ccccc3)[nH]c2n(CCC)c1=O
Ki (Adenosine A2 receptor): 4.22 µM

CCCn1c(=O)c2nc([C@@H](C)c3ccccc3)[nH]c2n(CCC)c1=O
Ki (Adenosine A2 receptor): 12.9 µM

CCCC(Cc1ccccc1)c1nc2c(=O)n(CCC)c(=O)n(CCC)c2[nH]1 (centres undefined)
Ki (Adenosine A2 receptor): 0.61 µM

CCCn1c(=O)c2nc(C(CO)Cc3ccccc3)[nH]c2n(CCC)c1=O (centres undefined)
Ki (Adenosine A2 receptor): 12.8 µM

CCCn1c(=O)c2nc(C(CC)Cc3ccccc3)[nH]c2n(CCC)c1=O (centres undefined)
Ki (Adenosine A2 receptor): 1.23 µM
